The subject of one experiment is R40P. Briefly: Tumor cell viability. Type of experiment: cell-based. Conditions: Pancreatic (mouse spontaneous model) R40P, K-Ras. As for the experimental part: (§1) For XTT assays, cells were grown in 96-well plates overnight and all assays were conducted in growth medium will full serum and additives. Compounds were serially diluted in DMSO and then further diluted into the medium to give the appropriate concentration while minimizing precipitation associated with serial diluting in medium alone Inhibitors were added for 72 h and cell viability was quantified at 450 nm after the addition of 1 mg/ml XTT solution (Sigma-Aldrich) in phenol-red free DMEM medium containing […] (Sigma-Aldrich). Dose-response curves were plotted using GraphPad Prism software and EC50s were calculated using this program.

Another experiment has as its system HT29. Kind of experiment: Tumor cell viability. Type of experiment: cell-based. Conditions: Homo sapiens, HT-29; Colon HT29, B-RAF V600E. As for the experimental part: as §1
The test system of another experiment is MCF7. Kind of experiment: Tumor cell viability. Conditions: Homo sapiens; Breast MCF7, PI3K. Type of experiment: cell-based. As for the experimental part:
as §1

The target of experiment [1] is B-RAF/C-RAF heterodimerization (Homo sapiens (Human), UniProt P15056). Kind of experiment: B-RAF/C-RAF heterodimerization in HUVECs (immunoprecipitation/Western). Conditions: ECs stimulated with bFGF or VEGF. Type of experiment: cell-based.
Another experiment deals with HCT116. Briefly: Tumor cell viability. To be noted: Homo sapiens, HCT-116; Colon HCT116, K-Ras. Type of experiment: cell-based, human. The procedure: as §1
The test system of experiment [2] is HUVECs co-cultured with hTERT-human hepatic stellate cells. Kind of experiment: Stellate cell/endothelial cell co-culture tube formation assay. Type of experiment: cell-based. Conditions: […] 6, […] 3, 1.0 μM imatinib, 0.5 μM GW 5074. The procedure:
One representative panel from 3 independent experiments is shown. […] Scale bar=200 μm.
The stellate cells were washed in PBS and mixed with early passage HUVECs (p<5) at a ratio of 1:4 and mixed into a 3.75 mg/ml Type 1 Rat tail collagen matrix (BD Biosciences) in M-199 media. 30 μl of this mixture was seeded onto each well of a half-area 96 well plate (Corning). The collagen was allowed to polymerize for 30 min at 37° C. and […] of complete EBM-2 media was added to each well. Various inhibitors were serially diluted in DMSO and subsequently added to duplicate wells 6 h post cell seeding. […] The endothelial tubes and the stellate cells were imaged at 48 h with a 10× objective on a confocal microscope. Images were collected across five fields per well.
Stellate cell/endothelial cell tube formation assay and mouse matrigel model. This assay was performed as described in the SI Methods. The stellate cells were a gift from Dr. David Brenner and previously described (Schnabl, et al. (2002) Laboratory investigation; a journal of technical methods and pathology 82:323-333). […] The mouse matrigel model was performed as previously described (Eliceiri, et al. (1999) Molecular cell 4:915-924 5) and further details of immunohistochemistry and animal dosing can be found herein.
To validate the findings of Example 10, a co-culture angiogenesis assay was utilized to evaluate similar combinations of PDGFR and RAF inhibitors. In the assay, HUVECs are mixed with hepatic stellate cells (a pericyte found in the perisinusoidal space of the liver) in a 3D-collagen gel. The co-culture produced endothelial tubes with pericyte contacts (from the stellate cells) that can be imaged and quantified as shown in FIGS. 4B and C.

In experiment [3] the test system is Tg(fli1:EGFP) zebrafish embryos. Kind of experiment: Zebrafish angiogenesis model. To be noted: for intersegmental vessel formation: treated 16-48 hpf, 5 μM imatinib, 1 μM GW 5074, alone or combined. As for the experimental part:
Embryos were treated with 1 μM 6 or SU5416, or 10 μM 3 from 20 hours post fertilization (hpf) until 48 hpf. Representative 3D reconstructions of the blood vasculature are shown for both the head and tail regions of the embryo. Designations for the major vessels in the head and tail of the zebrafish embryo at 48 hpf are available in FIG. 8A. (FIG. 3B) Disruption of lumen formation in the zebrafish during late vessel maturation. Zebrafish treated with either 1 μM 6 or 10 μM 3 from 20-48 hpf were imaged at 35 and 48 hpf. […] Shown is 3D overlap reconstruction of the GFP expressing intersegmental vessels with TUNEL-positive nuclei at 48 hpf (shown in red). Representative phase contrast views as well as quantification of intersegmental vessel volumes from FIG. 3A and FIG. 3B can be found in FIG. 8B-D, respectively. (FIG. 3C) Time course of drug addition to zebrafish. […] At 30 hpf the zebrafish embryos established early vessels with evident lumens. […] All scale bars=100 μm.
Z-stacks from laser scanning confocal microscopy are shown depicting formation of the intersegmental vessels at 48 hpf. n=6 embryos/treatment. (FIG. 4B) HUVECs were co-cultured with hTERT-human hepatic stellate cells in a 3-D collagen matrix in the presence of complete EBM-2 medium to monitor pericyte-associated endothelial tube formation. […] The endothelial tubes were stained at 24 h by adding 2 μl FITC labeled Ulex europaeus lectin (Vector labs) per well. Images were acquired 48 h post seeding of the cells. One representative panel from 3 independent experiments is shown. Green—FITC lectin labeled endothelial cells, Red—DiIC(3) labeled stellate cells. […] Scale bar=200 μm. (FIG. 4C) Tube lengths were measured using Metamorph software for each tube for all 10 fields that were acquired. The % pericyte-covered tube length was calculated from the ratio of tube length sums for the tubes with and without pericyte contact. Error bars are reported as ±SEM of two wells per group. *indicates p<0.05 compared to DMSO group.
Zebrafish studies. Transgenic Tg(fli1:EGFP) zebrafish embryos were purchased from www.zfin.org and reported elsewhere (Lawson, et al. (2002) Dev Biol 248:307-318) and maintained according to (“Zebrafish—A Practical Approach”, Oxford University Press, 2002). Compounds in DMSO stock solutions were diluted directly into the water and vessels were imaged for GFP expression using a Nikon c1-si confocal microscope. Apoptosis was measured by TUNEL staining using the Apoptag in situ Red Fluorescence Kit (Chemicon) with a protocol described previously (Stanton, et al. (2006) The Journal of biological chemistry 281:28782-28793).

For the next experiment, the system named is A549 cells. Kind of experiment: Cell proliferation assay (BrdU ELISA) in A549 cells. Conditions: A549, low serum DMEM (0.5% FBS), 72 h. Type of experiment: cell-based. As for the experimental part:
A549 cells, which endogenously express oncogenic K-RAS, were plated at 2500 cells/well of a 96-well plate in low serum DMEM (0.5% fetal bovine serum) overnight. The next morning, compounds were serially diluted in DMSO and resuspended in fresh DMEM+0.5% medium, which was added to the cells for 72 h. At this time point the cells were fixed and proliferation was quantified using an ELISA for bromodeoxyuriding incorporation (BrdU ELISA, Millipore, Inc.). BrdU incorporation occurs during S phase and is the classical method for determining cell proliferation rates. In FIG. 14B-C, BrdU incorporation is expressed as a percentage of the BrdU incorporation occurring in cells treated with 0.1% DMSO as control. A dotted line represents the growth rate of cells treated with DMSO alone. […] (FIG. 13C)
A general note: Dividing cells build labelled thymidine or BrdU into new DNA.

For the next experiment, the system named is XPA-1 cells. Briefly: Cell cycle analysis of XPA-1 cells (flow cytometry). Type of experiment: cell-based. To be noted: 5 μM, 20 h. As for the experimental part: For cell cycle analysis, cells were grown in complete DMEM+10% FBS in the presence of each inhibitor and harvested after 20 h of inhibitor treatment. Cell cycle analysis was performed by flow cytometry following propidium iodide staining. The cells were harvested, fixed with ice cold methanol, treated for 45 min with 10 μg/ml of RNAse and resuspended in PBS containing 10 μg/ml of PI, and analysed by flow cytometry. […] For corresponding confocal microscopy images, cells attached to coverslips were fixed with cold methanol and permeabilized in PBS containing 0.1% triton X-100 for two minutes and blocked for 60 minutes, at room temperature with 2% BSA in PBS. Cells were stained with the DNA binding dye TOPRO-3 (Invitrogen) to label the DNA and laminB (Santa Cruz) to label the nuclear envelope. The anti-Lamin B antibody was used at a 1:100 dilution for two hours at room temperature. After washing several times with PBS, cells were stained for two hours at room temperature, with secondary antibody diluted 1:300 and co-incubated with TOPRO-3 (1:500) (Invitrogen). Samples were mounted in Vectashield hard-set mounting media (Vector Laboratories) and imaged on a Nikon Eclipse Cl confocal microscope with a 1.4 NA 60× oil-immersion lens, using minimum pinhole (30 μm). Images were captured and processed using EZ-C1 3.50 imaging software (Nikon, Inc). Scale bars, 10 μm.

Each structure is given as a SMILES string.

Sequence of B-RAF/C-RAF heterodimerization (P15056 whole entry, one chain of several): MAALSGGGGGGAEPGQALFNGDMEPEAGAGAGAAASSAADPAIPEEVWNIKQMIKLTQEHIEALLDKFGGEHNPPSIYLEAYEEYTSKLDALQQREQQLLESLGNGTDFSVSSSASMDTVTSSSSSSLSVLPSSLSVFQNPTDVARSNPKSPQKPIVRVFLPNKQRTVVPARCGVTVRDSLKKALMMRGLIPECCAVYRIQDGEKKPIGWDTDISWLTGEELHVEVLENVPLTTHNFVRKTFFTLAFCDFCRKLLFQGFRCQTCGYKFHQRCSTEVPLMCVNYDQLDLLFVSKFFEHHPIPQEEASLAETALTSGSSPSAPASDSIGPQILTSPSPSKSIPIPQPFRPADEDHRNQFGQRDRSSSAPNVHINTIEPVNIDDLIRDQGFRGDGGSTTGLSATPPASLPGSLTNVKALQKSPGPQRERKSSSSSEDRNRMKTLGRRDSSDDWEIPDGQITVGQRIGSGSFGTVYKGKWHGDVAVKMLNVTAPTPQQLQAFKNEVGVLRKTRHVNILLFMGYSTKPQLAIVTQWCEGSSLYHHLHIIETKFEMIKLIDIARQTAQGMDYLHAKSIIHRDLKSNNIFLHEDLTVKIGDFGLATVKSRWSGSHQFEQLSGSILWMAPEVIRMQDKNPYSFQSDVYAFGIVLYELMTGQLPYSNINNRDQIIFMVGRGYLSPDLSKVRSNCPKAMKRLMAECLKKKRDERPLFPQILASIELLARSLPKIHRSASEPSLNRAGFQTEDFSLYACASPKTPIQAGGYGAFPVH

Regarding `N#CC(=C(/N)Sc1ccccc1N)/C(C#N)=C(\N)Sc1ccccc1N` [Compound U0126], the EC50 was 10.9 µM with R40P, 4.41 µM with HT29, > 20 µM in the experiment with MCF7 and > 20 µM in the experiment with HCT116. For the same molecule, the B-RAF/C-RAF heterodimer formation result in experiment [1] is “greatly increased”.
For `O=C1Nc2ccc(I)cc2/C1=C/c1cc(Br)c(O)c(Br)c1` [GW 5074, reference compound], the “endothelial tube formation and % pericyte-covered tube length” value in experiment [2] is reported as “did not affect pericyte coverage or tube length”. The intersegmental vessel formation result in experiment [3] is “do not have an effect on intersegmental vessel formation”.
Regarding `Oc1cc(-c2nc(-c3ccccc3)[nH]c2-c2ccncc2)ccc1Cl` [L-779,450], the “cell proliferation (BrdU incorporation) versus DMSO control” value in the experiment on A549 cells is “induce hyperproliferation”.
Consider `O=C(NOC[C@H](O)CO)c1ccc(F)c(F)c1Nc1ccc(I)cc1F` [PD0325901, reference compound], for which the “cell cycle / mitotic progression” value in the experiment with XPA-1 cells is listed as “had no effect on mitotic progression”.
For the molecule `CCCS(=O)(=O)Nc1ccc(F)c(C(=O)c2c[nH]c3ncc(Cl)cc23)c1F` [PLX 4720], in the experiment on A549 cells, the “cell proliferation (BrdU incorporation) versus DMSO control” value is recorded as “induce hyperproliferation”.
`Cc1cc(C)c(C=C2C(=O)Nc3ccccc32)[nH]1` [SU5416, 3-[(2,4-dimethylpyrrol-5-yl)methylene]-2-indolinone]: the “blood vessel formation in zebrafish embryos” value in experiment [3] (treated 20-48 hpf, 1 μM 6 or SU5416, up to 10 μM 3) was “completely disrupting endothelial cell migration and neovascularization in the tail”.
Turning to `Cc1ccc(NC(=O)c2ccc(CN3CCN(C)CC3)cc2)cc1Nc1nccc(-c2cccnc2)n1` [imatinib, reference compound], in [2], the “endothelial tube formation and % pericyte-covered tube length” value is on record as “did not affect endothelial tube formation”. For the same molecule, in experiment [3], the intersegmental vessel formation entry is given as “do not have an effect on intersegmental vessel formation”.

Usually EC50 stands for the concentration that produces a half-maximal response.

These data come from patent US9260417B2, “Therapeutic methods and compositions involving allosteric kinase inhibition” (AMITECH THERAPEUTIC SOLUTIONS, INC., priority 2010, dated 2016).
